ChEMBL document CHEMBL1201862, “PubChem BioAssay data set” (2004)
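Exposure lasted 48 hours, with cells grown in 96-well plates and compounds tested at five concentrations. GI50: concentration for 50% inhibition of growth.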 Calls of active or inactive are those of the source. Rule as the data show it: active = GI50 up to about 1.1 µM and inactive = higher.

Columns and labels:
Experiment in all cases: NCI tumour cell line growth inhibition, 48 h
[1] = system: MOLT-4
[2] = system: UACC-62
[3] = system: TK-10
[4] = system: SNB-78
[5] = system: SR
[6] = system: Malme-3M
[7] = system: RXF 393
[8] = system: SNB-19
[9] = system: LOX IMVI
[10] = system: CAKI-1
[11] = system: SK-MEL-28
[12] = system: SK-MEL-5
[13] = system: SF-268
[14] = system: OVCAR-3
[15] = system: U-251
[16] = system: SW-620
[17] = system: NCI-H226
[18] = system: OVCAR-4
[19] = system: SN12C
[20] = system: SNB-75
[21] = system: A549
[22] = system: HCC 2998
[23] = system: HL-60
[24] = system: IGROV-1
[25] = system: K562
[26] = system: NCI-H23
[27] = system: OVCAR-5
[28] = system: SK-MEL-2
[29] = system: M14
[30] = system: UO-31
[31] = system: KM12
[32] = system: SK-OV-3
[33] = system: HCT-116
[34] = system: HCT-15
[35] = system: KM-20L2
[36] = system: 786-0
[37] = system: DMS-114
[38] = system: HOP-92
[39] = system: ACHN
[40] = system: DU-145
[41] = system: SF-295
[42] = system: NCI/ADR-RES
[43] = system: COLO 205
[44] = system: Hs-578T
[45] = system: EKVX
[46] = system: OVCAR-8
[47] = system: PC-3
[48] = system: DLD-1
[49] = system: UACC-257
[50] = system: T47D
[51] = system: DMS-273
[52] = system: HOP-62
[53] = system: BT-549
[54] = system: NCI-H522
[55] = system: HT-29
[56] = system: NCI-H460
[57] = system: LXFL 529
[58] = system: MDA-MB-231
[59] = system: CCRF-CEM
[60] = system: MDA-N
[61] = system: RPMI-8226
[62] = system: MDA-MB-435
[63] = system: MCF7
[64] = system: SF-539

Question: What does the source list for `COC1CCCCN1C(=O)c1ccccc1` (centres undefined)?
Answer: GI50 [1]: > 25.3 µM (inactive); GI50 [2]: > 25.3 µM (inactive); GI50 [3]: > 25.3 µM (inactive); GI50 [4]: > 25.3 µM (inactive); GI50 [5]: > 25.3 µM (inactive); GI50 [6]: > 25.3 µM (inactive); GI50 [7]: > 25.3 µM (inactive); GI50 [8]: > 25.3 µM (inactive); GI50 [9]: > 25.3 µM (inactive); GI50 [10]: > 25.3 µM (inactive); GI50 [11]: > 25.3 µM (inactive); GI50 [12]: > 25.3 µM (inactive); GI50 [13]: > 25.3 µM (inactive); GI50 [14]: > 25.3 µM (inactive); GI50 [15]: > 25.3 µM (inactive); GI50 [16]: > 25.3 µM (inactive); GI50 [17]: > 25.3 µM (inactive); GI50 [18]: > 25.3 µM (inactive); GI50 [19]: > 25.3 µM (inactive); GI50 [20]: > 25.3 µM (inactive); GI50 [21]: > 25.3 µM (inactive); GI50 [22]: > 25.3 µM (inactive); GI50 [23]: > 25.3 µM (inactive); GI50 [24]: > 25.3 µM (inactive); GI50 [25]: > 25.3 µM (inactive); GI50 [26]: > 25.3 µM (inactive); GI50 [27]: > 25.3 µM (inactive); GI50 [28]: > 25.3 µM (inactive); GI50 [29]: > 25.3 µM (inactive); GI50 [30]: > 25.3 µM (inactive); GI50 [31]: > 25.3 µM (inactive); GI50 [32]: > 25.3 µM (inactive); GI50 [33]: > 25.3 µM (inactive); GI50 [34]: > 25.3 µM; GI50 [35]: > 25.3 µM (inactive); GI50 [36]: > 25.3 µM (inactive); GI50 [37]: > 25.3 µM (inactive); GI50 [38]: > 25.3 µM (inactive); GI50 [39]: > 25.3 µM (inactive)

Question: `Cc1ccc(C(=O)N(Cc2ccccc2)Cc2ccccc2)cc1/N=N/N(C)C` was tested. Which GI50 [40] did it give?
Answer: 36.6 µM (inactive)

Question: What about the GI50 [1] of the same molecule?
Answer: 26.4 µM (inactive)

Question: What about the GI50 [2] of the same molecule?
Answer: 13.1 µM (inactive)

Question: What about the GI50 [3] of the same molecule?
Answer: 33 µM (inactive)

Question: And the GI50 [4]?
Answer: 27.2 µM (inactive)

Question: And the GI50 [5]?
Answer: 27.7 µM (inactive)

Question: What about the GI50 [6] of the same molecule?
Answer: 18.2 µM (inactive)

Question: What about the GI50 [41] of the same molecule?
Answer: 9.29 µM (inactive)

Question: And the GI50 [42]?
Answer: 22.5 µM (inactive)

Question: What about the GI50 [43] of the same molecule?
Answer: 21.5 µM (inactive)

Question: And the GI50 [8]?
Answer: 15 µM (inactive)

Question: And the GI50 [9]?
Answer: 7.23 µM (inactive)

Question: And the GI50 [10]?
Answer: 6.82 µM (inactive)

Question: And the GI50 [44]?
Answer: 19.3 µM (inactive)

Question: And the GI50 [45]?
Answer: 35.3 µM (inactive)

Question: What about the GI50 [11] of the same molecule?
Answer: 19.3 µM (inactive)

Question: And the GI50 [46]?
Answer: 29.9 µM (inactive)

Question: And the GI50 [47]?
Answer: 25.9 µM (inactive)

Question: What about the GI50 [48] of the same molecule?
Answer: 21.4 µM (inactive)

Question: And the GI50 [49]?
Answer: 6.75 µM (inactive)

Question: What about the GI50 [12] of the same molecule?
Answer: 10.7 µM (inactive)

Question: What about the GI50 [13] of the same molecule?
Answer: 18.5 µM (inactive)

Question: And the GI50 [14]?
Answer: 4.49 µM (inactive)

Question: What about the GI50 [50] of the same molecule?
Answer: 14.8 µM (inactive)

Question: What about the GI50 [15] of the same molecule?
Answer: 37.8 µM (inactive)

Question: And the GI50 [16]?
Answer: 43.1 µM (inactive)

Question: And the GI50 [17]?
Answer: 19.1 µM (inactive)

Question: And the GI50 [51]?
Answer: 41.8 µM (inactive)

Question: What about the GI50 [18] of the same molecule?
Answer: 11.2 µM (inactive)

Question: And the GI50 [52]?
Answer: 23.1 µM (inactive)

Question: And the GI50 [19]?
Answer: 14.6 µM (inactive)

Question: And the GI50 [53]?
Answer: 18.5 µM (inactive)

Question: What about the GI50 [21] of the same molecule?
Answer: 17.5 µM (inactive)

Question: What about the GI50 [22] of the same molecule?
Answer: 29.6 µM (inactive)

Question: And the GI50 [54]?
Answer: 9.44 µM (inactive)

Question: And the GI50 [55]?
Answer: 7.6 µM (inactive)

Question: And the GI50 [23]?
Answer: 22.6 µM (inactive)

Question: And the GI50 [56]?
Answer: 14.7 µM (inactive)

Question: And the GI50 [57]?
Answer: 6.31 µM (inactive)

Question: What about the GI50 [24] of the same molecule?
Answer: 40.1 µM (inactive)

Question: What about the GI50 [25] of the same molecule?
Answer: 27.2 µM (inactive)

Question: And the GI50 [26]?
Answer: 11.2 µM (inactive)

Question: What about the GI50 [27] of the same molecule?
Answer: 39.2 µM (inactive)

Question: What about the GI50 [58] of the same molecule?
Answer: 22.9 µM (inactive)

Question: And the GI50 [28]?
Answer: 3.08 µM (inactive)

Question: What about the GI50 [29] of the same molecule?
Answer: 18.1 µM (inactive)

Question: And the GI50 [59]?
Answer: 24.2 µM (inactive)

Question: What about the GI50 [30] of the same molecule?
Answer: 15.6 µM (inactive)

Question: What about the GI50 [31] of the same molecule?
Answer: 8.32 µM (inactive)

Question: What about the GI50 [32] of the same molecule?
Answer: 29.5 µM (inactive)

Question: What about the GI50 [33] of the same molecule?
Answer: 8.39 µM (inactive)

Question: And the GI50 [34]?
Answer: 17.3 µM

Question: What about the GI50 [60] of the same molecule?
Answer: 30.2 µM (inactive)

Question: What about the GI50 [61] of the same molecule?
Answer: 29 µM (inactive)

Question: And the GI50 [62]?
Answer: 22.4 µM (inactive)

Question: What about the GI50 [63] of the same molecule?
Answer: 24.2 µM (inactive)

Question: And the GI50 [36]?
Answer: 22.2 µM (inactive)

Question: And the GI50 [64]?
Answer: 18.5 µM (inactive)

Question: What about the GI50 [38] of the same molecule?
Answer: 11.9 µM (inactive)

Question: What about the GI50 [39] of the same molecule?
Answer: 7.01 µM (inactive)
